# Reference: US20080125447A1, “Combination Therapy” (priority 2004, published 2008)
# System: Calu-6 tumour xenograft
# Assay: Calu-6 tumour xenograft in vivo solid tumour model
# Details: once-daily oral, 28 days
smiles,measurement,setting,value
"COc1cc2c(Oc3ccc4[nH]c(C)cc4c3F)ncnc2cc1OCCCN1CCCC1 [AZD2171, 4-(4-fluoro-2-methyl-1H-indol-5-yloxy)-6-methoxy-7-(3-(pyrrolidin-1-yl)propoxy)quinazoline]",inhibition of Calu-6 tumour xenograft growth,"1.5 mg/kg/day, P<0.01 one-tailed t test",49%
same,inhibition of Calu-6 tumour xenograft growth,"3 mg/kg/day, P<0.0001 one-tailed t test",69%
same,inhibition of Calu-6 tumour xenograft growth,"6 mg/kg/day, P<0.0001 one-tailed t test",91%
